# Experimental data: patent US12527782B2, “Use of hexokinase 2/mitochondria-detaching compounds for treating hexokinase-2 (HK2)-expressing cancers” (Vidac Pharma Ltd., priority 2016, dated 2026)
# “Also recorded” adds a separate entry of the source.
# Legend:
# Colon CXF 243 = test: Colony forming assay (CFA), CXF 243; assay type: cell-based, human; details: PDX/CFA
# Procedure: (§1) CFA was performed by Charles River Laboratories (Freiburg, Germany) in 96-well plate format according to a modified two-layer soft agar assay. The origin of the tumor xenografts has been described (Fiebig et al. 1989, incorporated herein by reference). The list of tumors used in this study is detailed in Table 1.
# Colon CXF HCT 116 = test: CFA, CXF HCT 116; assay type: cell-based, human; details: PDX/CFA
# Procedure: as §1
# Stomach GXF 214 = test: CFA, GXF 214; assay type: cell-based, human; details: PDX/CFA
# Procedure: as §1
# Head & Neck HNXF 536 = test: CFA, HNXF 536; assay type: cell-based, human; details: PDX/CFA
# Procedure: as §1
# Head & Neck HNXF 908 = test: CFA, HNXF 908; assay type: cell-based, human; details: PDX/CFA
# Procedure: as §1
# Head & Neck HNXF 2205 = test: CFA, HNXF 2205; assay type: cell-based, human; details: PDX/CFA
# Procedure: as §1
# [1] = system: Leukemia (AML) LEXFAM OCI-AML2; test: CFA, LEXFAM OCI-AML2; assay type: cell-based, human; details: Cell line/CFA
# Procedure: as §1
# [2] = system: Leukemia (BCLL) LEXFCM K-562; test: CFA, LEXFCM K-562; assay type: cell-based, human; details: Cell line/CFA
# Procedure: as §1
# [3] = system: Leukemia (BCLL) LEXFCM MEG-01; test: CFA, LEXFCM MEG-01; assay type: cell-based, human; details: Cell line/CFA
# Procedure: as §1
# [4] = system: Lung (NSCLC, large) LXFL 430; test: CFA, LXFL 430; assay type: cell-based, human; details: PDX/CFA
# Procedure: as §1
# [5] = system: Lung (NSCLC, large) LXFL 1072; test: CFA, LXFL 1072; assay type: cell-based, human; details: PDX/CFA
# Procedure: as §1
# [6] = system: Lung (SCLC) LXFS NCI-H727; test: CFA, LXFS NCI-H727; assay type: cell-based, human; details: Cell line/CFA
# Procedure: as §1
# Lung (SCLC) LXFS NCI-H82 = test: CFA, LXFS NCI-H82; assay type: cell-based, human; details: Cell line/CFA
# Procedure: as §1
# Breast MAXF 1322 = test: CFA, MAXF 1322; assay type: cell-based, human; details: PDX/CFA
# Procedure: as §1
# Breast MAXF MDA-MB-231 = test: CFA, MAXF MDA-MB-231; assay type: cell-based, human; details: Cell line/CFA
# Procedure: as §1
# Prostate PC-3 = test: XTT cell viability assay, PC-3; assay type: cell-based, human; details: Cell line/XTT
# Procedure: (§2) For XTT assays, cells were plated in 96-well plates (5,000 cells per well) for 24 hours. Cells were then incubated with different concentrations of Formula C in triplicates for 72 hr in DMEM supplemented with 0.5% FCS and 5 mM Glucose. Cell viability was evaluated using 2,3-bis-(2-methoxy-4-nitro-5-sulfophenyl)-2H-tetrazolium-5-carboxanilide (XTT)-based colorimetric assay kit (Biological Industries Ltd., Kibbutz Beit-Haemek, Israel). The optical density was measured by an Infinite 200 ELISA reader at 450 nm and reference was measured at 630 nm (Tecan, Männedorf, Switzerland).
# Skin SCC SKXF 1834 = test: CFA, SKXF 1834; assay type: cell-based, human; details: PDX/CFA
# Procedure: as §1
# [7] = system: Cutanous T cell lymphoma MJ; test: XTT cell viability assay, MJ; assay type: cell-based, human; details: Cell line/XTT
# Procedure: as §2
# HK1 = biological target: T1, HK1 (Homo sapiens, UniProt P19367); test: HK catalytic activity coupled enzymatic assay, HK1; assay type: biochemical; parameters: dose or concentration left out as unconfirmed; details: as a function of ATP or glucose; absence or presence of Formula C
# T1 construct: host or cells: E. coli
# Procedure: A431 (human skin SCC), HT-297.T (human AK), and HaCaT transformed normal keratinocyte cell lines were from ATCC (Manassas, VA) and were maintained in DMEM supplemented with 10% FCS, 4 mM L-Gln, 1 mM sodium pyruvate, 100 U/mL penicillin, 1 μg/mL streptomycin. Human HK1 and HK2 plasmids were purchased from Addgene (Cambridge, MA) and were purified from E. Coli. VDAC1 was purified from sheep liver mitochondria as described (Arbel et al. 2012, incorporated herein by reference). Human skin tissue microarray (SK208 and SK 805) were purchased from US Biomax Inc. (Rockville, MD).
# Hexokinase catalytic activity was determined by the coupled enzymatic assay in which hexokinase catalyzes the conversion of glucose to G6P, which is then oxidized by glucose-6-phosphate dehydrogenase (G6PDH) in the presence of NADP to form 6-Phospho-D-Gluconate and NADPH. NADPH production results in a colorimetric signal at 340 nm, which is proportional to the hexokinase catalytic activity. The readings were recorded in an ELISA plate reader Infinite 200 ELISA reader (Tecan, Männedorf, Switzerland).
# [8] = Phase 1a single topical application, safety and tolerability; assay type: in vivo, human; details: healthy volunteers
# Procedure: The Phase 1a clinical trial was a randomized, double-blinded, placebo-controlled, dose-escalation study in healthy older-adult volunteers to evaluate the safety, tolerability, and pharmacokinetics of a single topical dermal application of Formula C ointment. The study was conducted under FDA IND in a Phase 1 unit in the United States.
# Fifteen healthy volunteers, aged 35-70, were sequentially assigned to 1 of 3 consecutive treatment cohorts (5%, 10% or 20% Formula C ointment, respectively). Five subjects were randomized in a double-blind fashion in each dose cohort: 4 subjects received active Formula C ointment and 1 received matched placebo (0% Formula C; vehicle control). The study ointment (250 mg) was applied once to a 25 centimeter squared area of skin on the forehead of each volunteer.
# AK lesions = test: Phase 2a in subjects with actinic keratosis, efficacy (lesion count); assay type: in vivo, human
# Procedure: The Phase 2 clinical trial was a multiple-center randomized, double-blind, placebo-controlled, parallel-cohorts study to evaluate the efficacy, safety, tolerability, and pharmacokinetics of once-daily application of topical Formula C ointment (QD 200 mg) for 28 days in subjects with actinic keratosis. Subjects were followed for one or two months after they completed treatment (through day 56 or day 84). The primary and exploratory efficacy endpoints for the study were reduction in the number of lesions on days 56 and 84, respectively. Subjects were randomly assigned in a double-blind fashion to one of three parallel treatment cohorts (5%, or 10% Formula C, or placebo) at a ratio of 1:1:1. To qualify for the study, subjects aged 18 (inclusive) or older must have had 4-8 discrete Grade 1 or 2 AK lesions within a 25-centimeter squared area of the skin of their scalp or face. The study enrolled 93 subjects in the US and Israel.
# T1 sequence (P19367 whole entry): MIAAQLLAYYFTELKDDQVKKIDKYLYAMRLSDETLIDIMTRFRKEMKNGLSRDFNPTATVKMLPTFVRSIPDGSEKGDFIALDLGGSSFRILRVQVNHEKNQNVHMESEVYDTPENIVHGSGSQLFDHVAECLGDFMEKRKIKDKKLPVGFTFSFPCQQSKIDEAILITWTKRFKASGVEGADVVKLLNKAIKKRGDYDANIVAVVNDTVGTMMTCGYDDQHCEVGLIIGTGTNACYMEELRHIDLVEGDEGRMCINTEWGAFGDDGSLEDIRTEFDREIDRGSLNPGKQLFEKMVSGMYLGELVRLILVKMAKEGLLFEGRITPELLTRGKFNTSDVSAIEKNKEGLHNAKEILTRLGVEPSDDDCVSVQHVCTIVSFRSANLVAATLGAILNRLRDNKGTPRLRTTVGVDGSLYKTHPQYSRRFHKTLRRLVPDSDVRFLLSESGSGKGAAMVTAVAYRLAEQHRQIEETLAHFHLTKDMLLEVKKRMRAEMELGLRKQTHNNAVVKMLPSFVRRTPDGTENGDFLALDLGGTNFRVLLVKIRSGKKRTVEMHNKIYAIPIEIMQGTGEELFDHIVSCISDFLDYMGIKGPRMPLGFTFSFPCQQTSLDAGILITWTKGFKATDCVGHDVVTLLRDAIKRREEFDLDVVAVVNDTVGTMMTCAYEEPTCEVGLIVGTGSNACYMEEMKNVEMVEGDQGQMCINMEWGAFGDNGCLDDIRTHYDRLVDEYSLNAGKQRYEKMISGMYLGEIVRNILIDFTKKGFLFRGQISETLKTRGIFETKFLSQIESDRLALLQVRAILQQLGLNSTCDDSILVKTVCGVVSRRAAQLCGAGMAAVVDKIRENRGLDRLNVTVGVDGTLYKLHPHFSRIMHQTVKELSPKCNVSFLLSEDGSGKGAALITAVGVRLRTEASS
structure (smiles),measurement,setting,value
CC/C=C\CC1C(=O)CCC1CC(=O)Oc1cccc2cccnc12 (centres unmarked) [Formula C],IC50,Colon CXF 243,1760 nM
same,IC50,Colon CXF HCT 116,4330 nM
same,IC50,Stomach GXF 214,1940 nM
same,IC50,Head & Neck HNXF 536,1440 nM
same,IC50,Head & Neck HNXF 908,3880 nM
same,IC50,Head & Neck HNXF 2205,3960 nM
same,IC50,[1],985 nM
same,IC50,[2],2340 nM
same,IC50,[3],2760 nM
same,IC50,[4],237 nM
same,IC50,[5],1570 nM
same,IC50,[6],835 nM
same,IC50,Lung (SCLC) LXFS NCI-H82,1770 nM
same,IC50,Breast MAXF 1322,1550 nM
same,IC50,Breast MAXF MDA-MB-231,1700 nM
same,IC50,Prostate PC-3,1200 nM
same,IC50,Skin SCC SKXF 1834,742 nM
same,IC50,[7],1470 nM
same,HK1 catalytic activity,HK1,does not affect; also recorded: did not affect the catalytic activity
same,"clinically significant changes at application sites, vital signs, physical examinations, clinical laboratory results, ECGs, Holter monitors",[8]; single topical application,No clinically significant changes
same,severity and course of adverse events,[8]; single topical application,"mild, short-lived and reversible"
same,serious adverse events,"[8]; single topical application of 250 mg 5%, 10% or 20% ointment to 25 cm2 forehead",No serious adverse events
same,mean reduction in total lesion count from baseline on Day 56,"AK lesions; ITT-face subgroup, 10% ointment, adjusted to age and gender, P=0.023 vs Placebo",38.8%±36.4%
same,median reduction in total lesion count,"AK lesions; PP-face subgroup, 10% ointment",50.0%
same,mean reduction in total lesion count from baseline on Day 56,"AK lesions; full ITT population (face or scalp), 10% ointment QD 200 mg 28 days, adjusted by site, age, gender, treatment field location",32.1%±34.1%
same,median reduction in total lesion count from baseline on Day 56,"AK lesions; full Per Protocol (PP) population, 10% ointment",25.0%
